Entries after “also recorded” stand apart in the source; their conditions may differ. Marks after values point to notes of the source that are not given here.
How the values were obtained:
[1] = EPR signal of nitroxides exposed to O2 flux formed by HX/XO (spin-loss); type: biochemical; settings: for Steady state EPR signal (%): % from total R′RNO + R′RNOH after exposure to 5 mM HX + 0.03 U/ml XO in air-saturated PBS pH 7.2; for effect of O2 on the EPR signal: exposure to O2 flux formed by HX/XO
Protocol: For EPR experiments, samples (0.05-0.1 ml) either of solutions of chemicals or cell suspensions were drawn by a syringe into a gas-permeable teflon capillary of 0.8 mm inner diameter, 0.05 mm wall thickness (Zeus Industrial Products, Inc. Raritan, N.J.). Each capillary was folded twice, inserted into a narrow quartz tube which was open at both ends (2.5 mm ID), and then placed horizontally into the EPR cavity. During the experiments, gases of desired compositions were blown around the sample without having to disturb the alignment of the tube within the EPR cavity. EPR spectra were recorded in a Varian E4 (or E9) X-band spectrometer, with field set at 3357 G, modulation frequency of 100 KHz, modulation amplitude of 1 G and non-saturating microwave power. The EPR spectrometer was interfaced to an IBM-PC through an analog-to-digital converter and a data translation hardware (DT2801) and the spectra were digitized using commercial acquisition software, enabling subtraction of background signals. To study the kinetics of the spin-loss, the spectra were deliberately overmodulated, and the magnetic field was kept constant while the intensity of the EPR signal was followed.

[2] = SOD-inhibitable ferricytochrome c reduction assay, rate constants of reaction with O2 (SOD-like activity); type: biochemical; settings: low ionic strength (10 mM HEPES), pH 7.0, 22° C.
Text: As a further check, the reaction of representatives of both 5- and 6-membered cyclic nitroxides with O2 was studied. The SOD-inhibitable ferricytochrome c reduction assay (Fridovich, Handbook of Methods for Oxygen Radical Research, 213-215, 1985) was used to determine rate constants of reaction with O2. […] The reaction was started by adding 0.01 U/ml XO and the rate of ferricytochrome c reduction, in the absence (V) and in the presence (v) of various nitroxides, was spectrophotometrically followed at 550 nm. Both reference and sample cuvettes contained all the reagents, with the reference cuvette containing 100 units/ml SOD, thereby eliminating spurious reactions from interfering with the determination of rate constants. Data were analyzed by plotting V/v as a function of [nitroxide] and k1 was calculated, knowing kCytC+superoxide, according to:
(V/v)−1=k1x[nitroxide]/kCytC+superoxidex[Cyt−c^III].

[3] = test system: C3H mice; assay: Nitroxide-induced weight loss, chronic oral administration in drinking water; type: in vivo; settings: 10 mg per ml in drinking water
Text: Thus, nitroxide given over extended periods appears to cause weight loss in animals.

[4] = test system: Chinese hamster V79 cells; assay: In vitro protection against ionizing radiation, clonogenic survival; type: cell-based; settings: 100 mM TEMPOL 10 min prior to irradiation
[5] = test system: kidneys of mice; assay: Post-irradiation protection after local kidney irradiation, weight gain and kidney histology; type: in vivo; settings: 28 weeks
Protocol: This hypothesis has been tested in experiments where both kidneys of mice were locally irradiated with single, acute doses of radiation. […] At 28 weeks after irradiation, the animals were sacrificed, and histological analysis was performed on their kidneys to assess damage.

[6] = test system: DNA-Fe(II); assay: Reaction of nitroxide with DNA-Fe(II), EPR spin-loss and OD353nm; type: biochemical, Salmon; settings: TEMPOL hypoxically mixed with DNA-Fe(II)
Protocol: All solutions always contained 0.1 mg/ml Salmon DNA. The appearance of DNA-Fe(III) was spectrophotometrically monitored at 353 nm, whereas the spin-loss of CHD was monitored by following its EPR signal. To study the time-dependence of ΔOD353nm (∘), 1 mM CHD was mixed with 0.1 mM Fe(II). To follow the spin-loss of CHD (□), 1 mM Fe(II) was mixed with 0.1 mM CHD.
It was also questioned whether the aerobic and hypoxic protection by CHD to H2O2 exposure was a result of CHD directly accepting electrons from ferrous ions, thereby preventing generation of .OH. Because cellular iron is chelated, the possible reaction of nitroxide with chelated iron(II) was examined by repeating the experiment in the presence of DNA. To study the possibility of nitroxide-induced oxidation of transition metals, CHD was hypoxically mixed with iron(II) in the presence of 0.1 mg/ml Salmon DNA. Consequently, DNA-Fe(III) was formed and the nitroxide EPR signal disappeared. The reaction kinetics were investigated by maintaining either CHD or Fe(II) in excess while the absorbance due to DNA-Fe(III) and the nitroxide spin-loss were monitored respectively (FIG. 6). Both the decay of the EPR signal and the appearance of the OD353nm obeyed pseudo 1st order kinetics from which the 2nd order reaction rate constant was calculated as 44 M^−1s^−1 or 33 M^−1s^−1 using the data from EPR or optical absorption, respectively.

[7] = test system: V79 cells; assay: Cytotoxicity of the agents alone, clonogenic assay; type: cell-based, Chinese hamster; settings: concentrations used: catalase 100 U/ml; SOD 100 μg/ml; DF 500 μM; nitroxides 5 mM
Protocol: For subsequent studies, the most lipophilic nitroxide, CHD, and the most hydrophilic one, TEMPOL, were chosen.
Chinese hamster V79 cells were grown in F12 medium supplemented with 10% fetal calf serum, penicillin, and streptomycin. Survival was assessed in all studies by the clonogenic assay. The plating efficiency range between 80-90%. Stock cultures of exponentially growing cells were trypsinized, rinsed, and plated (5×10^5 cells/dish) into a number of 100 mm petri dishes and incubated 16 h at 37° C. prior to experimental protocols. Cells were exposed for 1 h at 37° C. to either 0.5 mM hypoxanthine (HX)+0.05 U/ml of xanthine oxidase (XO) for varying lengths of time, or to H2O2 at different concentrations. To assess possible modulation in cytotoxicity, catalase, 100 U/ml; SOD, 100 μg/ml; DF, 500 μM; and 5 mM of each of the nitroxides from Table 1 were added to parallel cultures. CHD was prepared in a stock solution in ethanol and diluted into medium such that the final concentration was 5 mM. […] TEMPOL is water soluble and was prepared directly in tissue culture medium. […] Following treatment, cells were rinsed, trypsinized, counted, and plated for macroscopic colony formation. […] Plates were incubated 7 days, after which colonies were fixed with methanol/acetic acid, stained with crystal violet, and counted. Colonies containing >50 cells were scored. […]

[8] = test system: C3H mice; assay: Protection of mice against whole body radiation, 30 day survival; type: in vivo
Protocol: Controls were given saline.
Controls were given saline. Survival was recorded 30 days after exposure to radiation. The LD50(30) refers to that dose of radiation at which 50% of the mice survived 30 days after exposure.

[9] = test system: Chinese hamster V79 cells; assay: Protection of cells exposed to H2O2, clonogenic survival; type: cell-based; settings: H2O2 for 1 h, 37° C., full medium; 5 mM nitroxide; 100 U/ml catalase; 100 μg/ml SOD; 500 μM DF preincubated 2 h
Protocol: Chinese hamster V79 cells were grown in F12 medium supplemented with 10% fetal calf serum, penicillin, and streptomycin. Survival was assessed in all studies by the clonogenic assay. The plating efficiency range between 80-90%. Stock cultures of exponentially growing cells were trypsinized, rinsed, and plated (5×10^5 cells/dish) into a number of 100 mm petri dishes and incubated 16 h at 37° C. prior to experimental protocols. Cells were exposed for 1 h at 37° C. to either 0.5 mM hypoxanthine (HX)+0.05 U/ml of xanthine oxidase (XO) for varying lengths of time, or to H2O2 at different concentrations. To assess possible modulation in cytotoxicity, catalase, 100 U/ml; SOD, 100 μg/ml; DF, 500 μM; and 5 mM of each of the nitroxides from Table 1 were added to parallel cultures. CHD was prepared in a stock solution in ethanol and diluted into medium such that the final concentration was 5 mM. […] TEMPOL is water soluble and was prepared directly in tissue culture medium. […] DF was added either 2 h prior to or during treatment while the other agents were present only during HX/XO or H2O2 treatment. Following treatment, cells were rinsed, trypsinized, counted, and plated for macroscopic colony formation. […] Plates were incubated 7 days, after which colonies were fixed with methanol/acetic acid, stained with crystal violet, and counted. Colonies containing >50 cells were scored. […]

[10] = test system: Chinese hamster V79 cells; assay: Protection of cells exposed to HX/XO, clonogenic survival; type: cell-based; settings: 0.05 U/ml XO + 0.5 mM HX, 37° C.; 5 mM nitroxide; 100 U/ml catalase; SOD; 500 μM DF preincubated 2 h
Protocol: Chinese hamster V79 cells were grown in F12 medium supplemented with 10% fetal calf serum, penicillin, and streptomycin. Survival was assessed in all studies by the clonogenic assay. The plating efficiency range between 80-90%. Stock cultures of exponentially growing cells were trypsinized, rinsed, and plated (5×10^5 cells/dish) into a number of 100 mm petri dishes and incubated 16 h at 37° C. prior to experimental protocols. Cells were exposed for 1 h at 37° C. to either 0.5 mM hypoxanthine (HX)+0.05 U/ml of xanthine oxidase (XO) for varying lengths of time, or to H2O2 at different concentrations. To assess possible modulation in cytotoxicity, catalase, 100 U/ml; SOD, 100 μg/ml; DF, 500 μM; and 5 mM of each of the nitroxides from Table 1 were added to parallel cultures. CHD was prepared in a stock solution in ethanol and diluted into medium such that the final concentration was 5 mM. […] TEMPOL is water soluble and was prepared directly in tissue culture medium. […] DF was added either 2 h prior to or during treatment while the other agents were present only during HX/XO or H2O2 treatment. Following treatment, cells were rinsed, trypsinized, counted, and plated for macroscopic colony formation. For each dose determination cells were plated in triplicate and the experiments were repeated a minimum of two times. Plates were incubated 7 days, after which colonies were fixed with methanol/acetic acid, stained with crystal violet, and counted. Colonies containing >50 cells were scored. Error bars represent S.D. of the mean and are shown when larger than the symbol.

[11] = comparison value for native SOD; cited from earlier work

Row | Molecule | Steady state EPR signal (%) [1] | effect of O2 on the EPR signal [1] | kR′RNO + O2 [2] | toxicity on chronic oral administration ([3]; >3 weeks) | reduction of weight compared to controls ([3]; chronic oral administration (>3 weeks)) | extent of protection against irradiation [4] | kidney histology, TEMPOL alone ([5]; no radiation) | kidney histology, 24 Gy plus TEMPOL ([5]; single dose 24 Gy, oral TEMPOL two weeks post-irradiation) | 2nd order reaction rate constant with DNA-Fe(II) [6] | cytotoxicity of agent alone [7] | toxicity in irradiated mice ([8]; 275 mg/kg intraperitoneally) | increase of LD50(30) ([8]; 275 mg/kg intraperitoneally 10 min prior to whole body radiation 3 Gy to 13 Gy, versus saline controls) | protection against H2O2 cytotoxicity [9] | cell survival / protection from HX/XO [10] | kcat of native SOD [11]
1 | CC1(C)CCCC(C)(C)N1[O] [TEMPO, 2,2,6,6-tetramethylpiperidine-1-oxyl] | 100% | no effect | 1.3 × 10^6 M − 1^s − 1 | – | – | – | – | – | – | – | – | – | – | – | –
2 | CC1(C)CC(O)CC(C)(C)N1[O] [TEMPOL, 4-hydroxy-2,2,6,6-tetramethylpiperidine-1-oxyl] | 100% | no effect | 3.4 × 10^5 M − 1^s − 1 | no apparent toxicity | 12.5% | approximately 2.5 fold | identical to a section from a kidney of a control animal | protection against glomerular sclerosis and tubular cell loss | 40 M⁻¹ s⁻¹ | Neither catalase, SOD, DF, CHD, nor TEMPOL were cytotoxic alone | no toxicity | approximately 25% | fully protected; also recorded: complete protection | fully protected | –
3 | SOD: superoxide dismutase (SOD), obtained from Sigma | – | – | – | – | – | – | – | – | – | – | – | – | – | not altered | 2.3e+09 M⁻¹ s⁻¹
